Test results published in publication PMC10731658 (Chemical Research in Toxicology, 2023).

Columns and labels:
[1] = test system: HepG2 cells; conditions: combined exposure with TBHP (IC50 concentration); oximes about 10-fold below IC50; cited from earlier work
[2] = test system: HepG2 cells; assay: Flow cytometric detection of cell death (Annexin V & Dead Cell Assay); assay type: cell-based, human; conditions: IC50 concentration
Source text: 2. Flow cytometric detection of cell death
The microcapillary flow cytometry (Muse™ Cell Analyzer, Luminex, Austin, TX) was used to determine cell death.
This method is based on detecting externalization of phosphatidylserine on the surface of cells undergoing apoptosis.
The technique allows quantitative analysis of non-apoptotic, early apoptotic, late apoptotic, and necrotic cells. The reagent mixture also contains the membrane non-permeable dye 7-aminoactinomycin D. This component distinguishes necrotic and late apoptotic cells from the live and early apoptotic cells. The measurement of cell death was carried out according to manufacturer instructions after 1, 4, and 24 h incubation with tested oxime reactivators and with oxime-free medium as an untreated control. During the first day of the experiment, cells were seeded into a 24-well plate (TPP) with a density of […]. After the incubation, cells from each well were collected into the polystyrene tube (TPP) and centrifuged for 5 min at 1000 × g at room temperature. The supernatant was discarded. The cell suspensions […]
were prepared in fresh medium DMEM. Afterward 100 μL of cell suspension were mixed with the 100 μL of Muse™ Annexin V & Dead Cell Assay reagent, and the samples were incubated for 20 min at room temperature in the dark.
Per measurement, 5000 cells were analyzed. Each experiment was performed in triplicates and repeated three independent times. The concentration of K048, K074, K075, and K203 oximes and TBHP (positive control) used in […]
After 1 h of incubation (Figure S-1.) with tested oxime reactivators and TBHP as the positive control, the percentage […]
A significant change in the percentage of
The amount of early apoptotic cells
. On the other hand, the percentage of late apoptotic cells was […]
control cells. The count of late apoptotic cells enlarged by 7.74, 4.71 , 4.17, 4.13, and 3.20 %, respectively. The statistical differences were also found in the percentage of necrotic cells in this time interval. The highest increment […]
K048, K074, K075, and K203 groups when compared with control.
K075, and K203 treated groups, respectively, when compared with control. Finally, the percentage of necrotic cells […]
Fig. S-1 The percentage of intact (white column), early (light grey column), late apoptotic (dark grey column), and necrotic HepG2 cells (black column) determined using microcapillary flow cytometry after 1 h, 4 h and 24 h treatment with oxime acetylcholinesterase reactivators or TBHP (positive control). Control represents the cells incubated with an oxime-free culture medium. One-way analysis of variance (ANOVA) followed by Dunnetʼs multiple comparison test was used for statistical analysis by GraphPad Prism 9 software version 9.3.0. Data are expressed as means ± standard deviation (SD) of three independent measurements (n = 3). Significant differences between oxime-treated and untreated control groups (p ≤ 0.05) and marked by asterisk (*).
3. Stability of oximes in DMEM medium at 37 °C over 24 hours
The stability of oximes K048, K074, K075, and K203 in DMEM medium, with concentrations corresponding to their […]
UV, following the chromatographic conditions described by Vanova et al. (2021)13. The results over the tested time […]
Fig. S-2 Data are expressed in percentage as means ± standard deviation (SD) of three independent measurements […]

[3] = test system: AChE; conditions: in rat blood; read-out: IC50 (concentration required to inhibit AChE activity by 50%); cited from earlier work
[4] = test system: HepG2 cells; assay: Intracellular nonprotein disulfides (NP-SS-NP) by HPLC-UV; assay type: cell-based, human; conditions: IC50 concentration
Protocol: The culture medium was removed from a 25 cm^2 culture flask on the day of the experiment, and cells were washed twice with 3 mL of phosphate-buffered saline (PBS; GE Healthcare Life Sciences, South Logan, UT). Subsequently, 3 mL of a plain DMEM medium (negative control) and a DMEM medium containing TBHP (positive control) or individual oximes were added to each flask, and cells were incubated for 1, 4, and 24 h. The concentration of individual oxime and TBHP in the DMEM medium corresponded to the IC50 value. After incubation, the experimental medium was removed, and cells were washed with 3 mL of PBS and harvested by scraping. The resulting suspension was centrifuged at 220g and 21 °C for 5 min (Universal 320R centrifuge, Hettich, Tuttlingen, Germany). The supernatant was removed and dried cell pellets were stored at −80 °C. Each experiment was carried out in three independent replicates.
The cell pellets were thawed at room temperature, resuspended in 500 μL of ultrapure water (Millipore Purification System, Merck, Millipore, Darmstadt, Germany), and sonicated for 2 min (2 s cycle, amplitude 20%) in a Q500 homogenizer (QSONICA Sonicators, Newton). Then, the homogenate was divided into three parts: 250 μL for the determination of malondialdehyde (MDA), 100 μL for each determination of nonprotein thiols (NP-SH) and disulfides (NP-SS-NP), and 10 μL for the Bradford protein assay.
The HepG2 cell homogenate obtained, as described in Section 2.6, was processed for the determination of intracellular NP-SH and NP-SS-NP, according to Muckova et al.[11] The samples were analyzed using the HPLC system described above equipped with an SPD 20-AV Prominence UV/vis detector. The analysis was carried out on a Phenomenex LUNA C18 column (150 mm × 3 mm, 3 μm, 100 Å) protected with a Security Cartridge (4 mm × 2 mm, Phenomenex, Torrance) at 30 °C and a constant flow rate of 0.330 mL/using the mobile phase consisting of 0.9% aqueous FA (A) and ACN (B) under gradient conditions: 0–1 min 12% B, 1.1–2 min 12–55% B, 2–7 min 55% B, 7.1 min 55% B, and 7.1–10 min 12% B. The detector was set at 326 nm and the sample injection volume was 20 μL.

[5] = test system: rat plasma; conditions: in vivo; cited from earlier work

Compound | increased production of ROS [1] | decrease in percentage of intact (live) cells vs control ([2]; 1 h) | increase in early apoptotic cells vs control ([2]; 1 h) | increase in late apoptotic cells vs control ([2]; 1 h) | increase in necrotic cells vs control ([2]; 1 h) | decrease in percentage of live cells vs control ([2]; 4 h) | increase in early apoptotic cells vs control ([2]; 4 h) | increase in late apoptotic cells vs control ([2]; 4 h) | increase in necrotic cell population vs control ([2]; 4 h) | decrease in percentage of intact cells vs control ([2]; 24 h) | increase in early apoptotic cells vs control ([2]; 24 h) | increase in late apoptotic cells vs control ([2]; 24 h) | IC50 [3] | increase in NP-SS-NP levels vs untreated control ([4]; 1 h) | increase in NP-SS-NP levels vs untreated control ([4]; 4 h) | increase in NP-SS-NP levels vs untreated control ([4]; 24 h) | signs of oxidative stress (TBARS, superoxide dismutase activity) [5]
O/N=C/c1cc[n+](CCCC[n+]2ccc(/C=N/O)cc2)cc1 [K074, 1,1′-(butane-1,4-diyl)bis(4((hydroxyimino)methyl)pyridine-1-ium) dibromide] | 16% | ~8.85% | ~2.45% | 4.71% | 1.69% | 8.3% | 4.17% | 3.47% | 0.67% | 45.5% | 14.1% | 31.3% | ~66 µM | 42.8% | 52.4% | 72.3% | 
NC(=O)c1cc[n+](CCCC[n+]2ccc(C=NO)cc2)cc1.[Br-].[Br-] [K048, 4-carbamoyl-1-(4-(4-((hydroxyimino)methyl)pyridin-1-ium-1-yl)butyl)pyridin-1-ium dibromide] | 25% | ~9.71% | about 5.05% | 4.17% |  | 11.2% | 5.72% | 4.35% | 1.17% | 45.6% | 18.2% | 26.2% | ~643 µM | 34.8% | 54.8% | 61.5% | no signs of oxidative stress
